In patent US10975083B2, “Blood-brain barrier-penetrant dopamine-β-hydroxylase inhibitors” (BIAL—PORTELA & Cᵃ, S.A., priority 2016, dated 2021):
Read-outs that look alike come from different tables or passages of the source.

How the values were obtained:
in vitro = conditions: dog, MDCK, pH 7.4
DβH = biological target: T1, DβH (Homo sapiens, UniProt P09172); assay: DβH inhibition cell assay (SK-N-SH cellular homogenates, tyramine to octopamine); format: biochemical; conditions: for remaining activity at 0.1 µM: inhibitor 0.1 μM, read-out: DβH activity in % of Ctrl (0.1 μM); for remaining activity at 1 µM: read-out: DβH activity in % of Ctrl (1 μM); for remaining activity at 10 µM: inhibitor 10 μM, read-out: DβH activity in % of Ctrl (10 μM)
T1 construct: reaction mixture (total volume 500 μl) contained: cellular homogenate (75 μg total protein); host or cells: SK-N-SH cell homogenate
T1 sequence (P09172 1-617): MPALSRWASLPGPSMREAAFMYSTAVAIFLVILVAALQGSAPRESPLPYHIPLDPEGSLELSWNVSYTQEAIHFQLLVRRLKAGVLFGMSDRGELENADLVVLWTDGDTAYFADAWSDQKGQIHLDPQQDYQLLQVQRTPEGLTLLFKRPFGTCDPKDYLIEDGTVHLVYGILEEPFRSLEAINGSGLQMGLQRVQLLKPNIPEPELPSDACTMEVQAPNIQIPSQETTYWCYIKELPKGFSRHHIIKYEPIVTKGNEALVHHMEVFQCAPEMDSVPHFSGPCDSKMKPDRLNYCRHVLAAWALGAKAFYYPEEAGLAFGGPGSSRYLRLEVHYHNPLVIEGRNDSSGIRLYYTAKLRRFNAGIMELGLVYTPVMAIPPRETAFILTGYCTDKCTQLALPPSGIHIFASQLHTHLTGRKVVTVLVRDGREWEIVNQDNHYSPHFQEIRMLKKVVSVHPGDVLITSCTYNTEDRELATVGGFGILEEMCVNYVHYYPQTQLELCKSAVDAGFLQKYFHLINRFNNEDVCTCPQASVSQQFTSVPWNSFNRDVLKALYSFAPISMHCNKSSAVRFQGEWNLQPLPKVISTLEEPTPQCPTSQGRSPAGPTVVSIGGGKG

[1] = inhibitor 1 μM, SK-N-SH cell homogenate

| Compound | Papp A→B at 30 min, 50 μM (in vitro) | remaining activity at 0.1 µM (DβH; SK-N-SH cell homogenate) | remaining activity at 1 µM (DβH; [1]) | remaining activity at 10 µM (DβH; SK-N-SH cell homogenate) | remaining activity at 1 µM (DβH) |
| --- | --- | --- | --- | --- | --- |
| NC(=S)N1CCC(c2cccs2)C1 (centres unmarked) [Example 2, 3-(thiophen-2-yl)pyrrolidine-1-carbothioamide] | 126 ×10⁻⁶ cm/s | 54.9% | – | 0% | – |
| CC1(c2ccccc2)CCN(C(N)=S)C1 (centres unmarked) [Example 7, 3-methyl-3-phenylpyrrolidine-1-carbothioamide] | 100 ×10⁻⁶ cm/s | 84.8% | 37.7% | 7.5% | – |
| NC(=S)N1CC2CC2(c2ccccc2)C1 (centres unmarked) [Example 8, 1-phenyl-3-azabicyclo[3.1.0]hexane-3-carbothioamide] | 126 ×10⁻⁶ cm/s | – | 14.5% | 2.2% | – |
| Cc1ccc(C2CCN(C(N)=S)C2)s1 (centres unmarked) [Example 10, 3-(5-methylthiophen-2-yl)pyrrolidine-1-carbothioamide] | 126 ×10⁻⁶ cm/s | 54.9% | 2.7% | 0% | – |
| NC(=S)N1CCC(c2cc(F)cc(F)c2)C1 (centres unmarked) [Example 12, 3-(3,5-Difluorophenyl)pyrrolidine-1-carbothioamide] | 79.4 ×10⁻⁶ cm/s | 63% | 11.5% | 0% | – |
| NC(=S)N1CCC(c2ccsc2)C1 (centres unmarked) [Example 15, 3-(thiophen-3-yl)pyrrolidine-1-carbothioamide] | 79.4 ×10⁻⁶ cm/s | 50.1% | 9.3% | – | – |
| NC(=S)N1CCC(c2ccco2)C1 (centres unmarked) [Example 17, 3-(furan-2-yl)pyrrolidine-1-carbothioamide] | 79.4 ×10⁻⁶ cm/s | – | 56.8% | – | – |
| NC(=S)N1CCC(c2c(F)c(F)cc(F)c2F)C1 (centres unmarked) [Example 23, 3-(2,3,5,6-Tetrafluorophenyl)pyrrolidine-1-carbothioamide] | 100 ×10⁻⁶ cm/s | 5.9% | 0% | – | – |
| NC(=S)N1CCC(c2cc(F)cc(F)c2F)C1 (centres unmarked) [Example 24, 3-(2,3,5-trifluorophenyl)pyrrolidine-1-carbothioamide] | 100 ×10⁻⁶ cm/s | 40.2% | 15.9% | – | – |
| NC(=S)N1CC[C@@H](c2cc(F)cc(F)c2)C1 [Example 25, (S)-3-(3,5-difluorophenyl)pyrrolidine-1-carbothioamide] | 100 ×10⁻⁶ cm/s | 46.1% | 6.7% | – | – |
| Fc1ccc(Cl)c(F)c1[C@@]12C[C@@H]1c1c[nH]c(=S)n1C2 [Example 103, (5aR,6aS)-5a-(3-chloro-2,6-difluorophenyl)-5,5a,6,6a-tetrahydrocyclopropa[3,4]pyrrolo[1,2-c]imidazole-3 (2H)-thione] | – | 63.4% | 10.3% | – | – |
| Cc1[nH]c(=S)n2c1C[C@@H](c1c(F)ccc(Cl)c1F)C2 [Example 105, (S)-6-(3-chloro-2,6-difluorophenyl)-1-methyl-2,5,6,7-tetrahydro-3H-pyrrolo[1,2-c]imidazole-3-thione] | – | 17.4% | 0% | – | – |
| Fc1cc(F)cc([C@]23C[C@H]2Cc2c[nH]c(=S)n2C3)c1 [Example 106, (5aS,6aS)-5a-(3,5-difluorophenyl)-2,5,5a,6,6a,7-hexahydro-3H-cyclopropa[d]imidazo[1,5-a]pyridine-3-thione] | – | – | – | – | 16.3% |
| C[C@@H]1c2c[nH]c(=S)n2C[C@H]1c1c(F)c(F)cc(F)c1F [Example 107, (6R,7S)-7-methyl-6-(2,3,5,6-tetrafluorophenyl)-2,5,6,7-tetrahydro-3H-pyrrolo[1,2-c]imidazole-3-thione] | – | – | 54.7% | – | – |
| Fc1ccc(Cl)cc1[C@@]12C[C@@H]1c1c[nH]c(=S)n1C2 [Example 110, (5aR,6aS)-5a-(5-chloro-2-fluorophenyl)-5,5a,6,6a-tetrahydrocyclopropa[3,4]pyrrolo[1,2-c]imidazole-3 (2H)-thione] | – | 73.8% | 15.9% | – | – |
| Fc1cc(F)c(F)c([C@H]2CC3CNC(=S)N3C2)c1F (stereo partly drawn) [Example 111, (6R)-6-(2,3,5,6-tetrafluorophenyl)tetrahydro-1H-pyrrolo[1,2-c]imidazole-3(2H)-thione] | – | – | 48.3% | – | – |
| Fc1ccc(F)c([C@H]2Cc3c[nH]c(=S)n3C2)c1F [Example 113, (R)-6-(2,3,6-trifluorophenyl)-2,5,6,7-tetrahydro-3H-pyrrolo[1,2-c]imidazole-3-thione] | – | 39.6% | 0% | – | – |
| Cn1cc2n(c1=S)C[C@@H](c1c(F)c(F)cc(F)c1F)C2 [Example 114, (R)-2-methyl-6-(2,3,5,6-tetrafluorophenyl)-2,5,6,7-tetrahydro-3H-pyrrolo[1,2-c]imidazole-3-thione] | – | 70.8% | 15.2% | – | – |

More lines, main results first:

| Papp A→B at 30 min, 50 μM (in vitro) | remaining activity at 0.1 µM (DβH; SK-N-SH cell homogenate) | remaining activity at 1 µM (DβH; [1]) | remaining activity at 10 µM (DβH; SK-N-SH cell homogenate) | Compound | remaining activity at 1 µM (DβH) |
| --- | --- | --- | --- | --- | --- |
| 63.1 ×10⁻⁶ cm/s | 75.6% | 42.4% | 4% | NC(=S)N1CCC(c2ccccc2)C1 (centres unmarked) [Example 1, 3-Phenylpyrrolidine-1-carbothioamide] | – |
| 251 ×10⁻⁶ cm/s | – | 30.9% | 5.3% | NC(=S)N1CCC(C2CCCCC2)C1 (centres unmarked) [Example 9, 3-cyclohexylpyrrolidine-1-carbothioamide] | – |
| – | 47.5% | 6% | – | Cc1[nH]c(=S)n2c1C[C@H](c1c(F)ccc(Cl)c1F)C2 [Example 104, (R)-6-(3-chloro-2,6-difluorophenyl)-1-methyl-2,5,6,7-tetrahydro-3H-pyrrolo[1,2-c]imidazole-3-thione] | – |
| – | – | 38.8% | – | C[C@H]1c2c[nH]c(=S)n2C[C@H]1c1c(F)c(F)cc(F)c1F [Example 108, (6R,7R)-7-methyl-6-(2,3,5,6-tetrafluorophenyl)-2,5,6,7-tetrahydro-3H-pyrrolo[1,2-c]imidazole-3-thione] | – |
| – | 67.5% | 17.2% | – | S=c1[nH]cc2n1C[C@@]1(c3cc(Cl)cc(Cl)c3)C[C@@H]21 [Example 109, (5aS,6aR)-5a-(3,5-dichlorophenyl)-5,5a,6,6a-tetrahydrocyclopropa[3,4]pyrrolo[1,2-c]imidazole-3 (2H)-thione] | – |
| – | 70% | 10.1% | – | Fc1ccc(F)c([C@@H]2Cc3c[nH]c(=S)n3C2)c1F [Example 112, (S)-6-(2,3,6-trifluorophenyl)-2,5,6,7-tetrahydro-3H-pyrrolo[1,2-c]imidazole-3-thione] | – |
| – | 0.5% | 0% | – | Fc1ccc(Br)c(F)c1[C@]12C[C@H]1c1c[nH]c(=S)n1C2 [Example 115, (5aS,6aR)-5a-(3-bromo-2,6-difluorophenyl)-5,5a,6,6a-tetrahydrocyclopropa[3,4]pyrrolo[1,2-c]imidazole-3 (2H)-thione] | – |
| – | 24.8% | 0% | – | Cn1cc2n(c1=S)C[C@@]1(c3cc(Cl)ccc3F)C[C@@H]21 [Example 116, (5aS,6aR)-5a-(5-chloro-2-fluorophenyl)-2-methyl-5,5a,6,6a-tetrahydrocyclopropa[3,4]pyrrolo[1,2-c]imidazole-3 (2H)-thione] | – |
| – | 6.4% | 0% | – | Fc1ccc(Br)c(F)c1[C@@H]1Cc2c[nH]c(=S)n2C1 [Example 117, (S)-6-(3-bromo-2,6-difluorophenyl)-2,5,6,7-tetrahydro-3H-pyrrolo[1,2-c]imidazole-3-thione] | – |
| – | 33.8% | 0% | – | Fc1ccc(Br)c(F)c1[C@H]1Cc2c[nH]c(=S)n2C1 [Example 118, (R)-6-(3-bromo-2,6-difluorophenyl)-2,5,6,7-tetrahydro-3H-pyrrolo[1,2-c]imidazole-3-thione] | – |
| – | 49.1% | 4.5% | – | Fc1ccc(Br)c(F)c1[C@]12C[C@H]1c1n[nH]c(=S)n1C2 [Example 119, (5aS,6aR)-5a-(3-bromo-2,6-difluorophenyl)-5,5a,6,6a-tetrahydrocyclopropa[3,4]pyrrolo[2,1-c][1,2,4]triazole-3(2H)-thione] | – |
| – | 86.4% | 21.8% | – | Fc1ccc(Br)cc1[C@]12C[C@H]1c1n[nH]c(=S)n1C2 [Example 120, (5aS,6aR)-5a-(5-bromo-2-fluorophenyl)-5,5a,6,6a-tetrahydrocyclopropa[3,4]pyrrolo[2,1-c][1,2,4]triazole-3(2H)-thione] | – |
| – | 5.2% | 0% | – | Cc1[nH]c(=S)n2c1[C@@H]1C[C@]1(c1c(F)ccc(Br)c1F)C2 [Example 121, (5aS,6aR)-5a-(3-bromo-2,6-difluorophenyl)-1-methyl-5,5a,6,6a-tetrahydrocyclopropa[3,4]pyrrolo[1,2-c]imidazole-3 (2H)-thione] | – |
| 63.1 ×10⁻⁶ cm/s | – | – | – | CC(C)NCC(O)COc1cccc2ccccc12 (centres unmarked) [Propranolol, reference compound] | – |
